We go through nine compounds from US9321790B2, “Pyrimidinone derivatives as antimalarial agents” (SANOFI, priority 2012, dated 2016).

By IC50 is commonly meant the concentration that gives 50% inhibition.

For experiment [1], the system named is Plasmodium falciparum (strain NF54). The experiment can be described thus: Antimalarial activity test: growth of Plasmodium falciparum in infected human erythrocytes, 3H-hypoxanthine incorporation. The format is cell-based. The following applies: strain NF54 sensitive to chloroquine, 72 h total incubation. As for the experimental part:
The compounds according to the invention underwent pharmacological trials to determine their inhibitory effect on the growth of Plasmodium falciparum (strain NF54 sensitive to inhibition with chloroquine) in an in vitro test using infected human erythrocytes. The growth of the parasites is measured via the incorporation of tritiated hypoxanthine compared with the incorporation in the absence of drug. The tests are performed in 96-well microplates (Falcon™ 96-well microtiter plates, ref. No. 353072) in RPMI 1640 solutions (10.44 g/l) (without hypoxanthine) with HEPES (5.94 g/l), NaHCO3 (2.1 g/l), neomycin ([…])+AlbumaxR II (5 g/l) supplemented with human erythrocytes with a final hematocrit of 1.25% and a final parasitemia of 0.15%.
The stock solution of the compounds is prepared at 10 mg/mL in DMSO. For the test, fresh solutions at the desired concentrations are prepared in RPMI medium. For the test, 100 μl of compound are mixed with 100 μl of infected blood. For the determination of the IC50 values, the compounds are tested in twofold serial dilution.
The plates are incubated at 37° C. under a humid atmosphere with 93% N2, 4% CO2 and 3% O2. After 48 hours, 50 μl of ^3H-hypoxanthine (=0.5 μCi) in RPMI medium are added to each well and incubation is continued for a further 24 hours. Next, the plates are washed with distilled water and the cell lyzate is transferred onto fiberglass filters. The filters are dried and the radioactivity is determined by liquid scintillation. The results in cpm are converted into percentages of inhibition. The inhibitory activity is given by the concentration that inhibits 50% of the growth of the parasite relative to a control without compound.

Experiment [2] addresses human PI3Kα (Homo sapiens (Human), UniProt P42336). The experiment can be described thus: Human PI3Kα activity test (luciferin/luciferase ATP consumption, KinaseGlo). The format is biochemical. The following applies: PI3Kα (p110α/p85α), 50 μM PIP2, 2 μM ATP, 90 minutes; read-out: IC50 Human PI3Kα. For orientation: In Kinase-Glo more light means more ATP remaining.
Method: The test uses a luciferin/luciferase system to measure the concentration of ATP and its consumption during the enzymatic reaction.
After 90 minutes, the reaction is quenched by adding 20 μl/well of KinaseGlo reagent (Promega V6713). After 10 minutes in the dark, the luminescence is read using a PHERAStar microplate reader (reading at 0.8 sec/well).
The mark [3] stands for this setting: Plasmodium falciparum, Erythrocyte.

Sequence of human PI3Kα (P42336 whole entry): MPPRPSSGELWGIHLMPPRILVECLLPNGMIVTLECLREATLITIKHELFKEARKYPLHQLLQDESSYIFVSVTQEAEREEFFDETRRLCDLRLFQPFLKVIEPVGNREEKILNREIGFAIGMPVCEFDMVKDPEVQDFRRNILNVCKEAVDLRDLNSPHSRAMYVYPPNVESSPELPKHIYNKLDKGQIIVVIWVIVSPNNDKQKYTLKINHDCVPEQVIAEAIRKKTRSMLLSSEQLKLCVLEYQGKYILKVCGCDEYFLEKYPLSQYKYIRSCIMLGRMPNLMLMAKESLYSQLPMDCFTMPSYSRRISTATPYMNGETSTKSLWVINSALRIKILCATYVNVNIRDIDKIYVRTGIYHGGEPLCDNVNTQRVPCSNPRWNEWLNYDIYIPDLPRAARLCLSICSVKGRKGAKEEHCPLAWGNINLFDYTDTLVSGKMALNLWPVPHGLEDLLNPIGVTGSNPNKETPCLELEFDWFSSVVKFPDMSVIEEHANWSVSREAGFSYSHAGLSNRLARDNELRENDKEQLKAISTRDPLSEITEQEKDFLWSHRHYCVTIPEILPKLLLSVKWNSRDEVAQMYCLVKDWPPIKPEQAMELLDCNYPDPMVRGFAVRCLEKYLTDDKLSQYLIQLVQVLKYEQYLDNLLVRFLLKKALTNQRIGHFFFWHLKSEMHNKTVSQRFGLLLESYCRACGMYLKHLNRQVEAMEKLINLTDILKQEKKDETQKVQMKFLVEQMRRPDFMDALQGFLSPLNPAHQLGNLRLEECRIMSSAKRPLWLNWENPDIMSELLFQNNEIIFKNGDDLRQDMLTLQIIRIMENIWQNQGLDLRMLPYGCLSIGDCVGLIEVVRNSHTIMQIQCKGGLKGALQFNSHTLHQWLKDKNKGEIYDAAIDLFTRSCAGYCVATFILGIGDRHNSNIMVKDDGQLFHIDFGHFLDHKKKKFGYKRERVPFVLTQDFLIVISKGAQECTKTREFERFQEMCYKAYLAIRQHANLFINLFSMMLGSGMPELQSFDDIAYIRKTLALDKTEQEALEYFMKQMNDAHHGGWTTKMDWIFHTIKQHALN
Sequence of human PI3Kα (P27986 whole entry partner): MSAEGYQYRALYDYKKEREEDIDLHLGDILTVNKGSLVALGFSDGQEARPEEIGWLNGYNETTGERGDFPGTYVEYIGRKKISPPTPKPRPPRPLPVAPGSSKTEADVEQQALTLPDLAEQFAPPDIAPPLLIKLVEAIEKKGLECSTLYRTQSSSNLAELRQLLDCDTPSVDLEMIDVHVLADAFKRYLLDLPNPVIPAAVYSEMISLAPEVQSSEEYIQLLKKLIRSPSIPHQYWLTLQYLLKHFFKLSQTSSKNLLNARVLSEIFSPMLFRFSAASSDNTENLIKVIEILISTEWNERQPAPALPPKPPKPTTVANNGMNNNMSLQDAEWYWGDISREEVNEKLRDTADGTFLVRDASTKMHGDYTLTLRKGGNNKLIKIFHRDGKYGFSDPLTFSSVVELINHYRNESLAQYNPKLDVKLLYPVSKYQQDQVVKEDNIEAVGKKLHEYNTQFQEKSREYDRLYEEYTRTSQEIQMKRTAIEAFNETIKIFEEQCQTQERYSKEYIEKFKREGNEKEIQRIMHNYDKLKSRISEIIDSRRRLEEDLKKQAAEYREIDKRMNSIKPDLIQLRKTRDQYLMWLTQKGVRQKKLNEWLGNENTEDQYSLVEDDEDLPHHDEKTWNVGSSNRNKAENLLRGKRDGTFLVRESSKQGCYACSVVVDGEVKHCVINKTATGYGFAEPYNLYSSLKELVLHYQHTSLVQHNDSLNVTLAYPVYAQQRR

Regarding `C[C@@]1(C(F)(F)F)Cn2c(nc(N3C[C@@H]4C[C@H]3CO4)cc2=O)N1CCc1ccc(N)cc1` [Compound 32, 1-[2-(4-Aminophenyl)ethyl]-2-methyl-7-(1S,4S)-2-oxa-5-azabicyclo[2.2.1]hept-5-yl-2-((S)-trifluoromethyl)-2,3-dihydro-1H-imidazo[1,2-a]pyrimidin-5-one], the IC50 in experiment [1] was 4 nM; in experiment [2], 3700 nM.

As to `O=C(CN1c2nc(N3C[C@@H]4C[C@H]3CO4)cc(=O)n2CC[C@H]1C(F)(F)F)c1ccc(C(F)(F)F)nc1` [Compound 33, (8S)-2-(1S,4S)-2-Oxa-5-azabicyclo[2.2.1]hept-5-yl-9-[2-oxo-2-(6-trifluoromethylpyrid-3-yl)ethyl]-8-trifluoromethyl-6,7,8,9-tetrahydropyrimido[1,2-a]pyrimidin-4-one], the IC50 in experiment [1] was 4000 nM; in experiment [2], over 10000 nM.

Consider `CN(CCO)c1ccc(C(=O)CN2c3nc(N4C[C@@H]5C[C@H]4CO5)cc(=O)n3CC[C@H]2C(F)(F)F)cn1` [Compound 34, (8S)-9-(2-{6-[(2-Hydroxyethyl)methylamino]pyrid-3-yl}-2-oxoethyl)-2-(1S,4S)-2-oxa-5-azabicyclo[2.2.1]hept-5-yl-8-trifluoromethyl-6,7,8,9-tetrahydropyrimido[1,2-a]pyrimidin-4-one], for which the concentration for half-maximal inhibition (IC50) in experiment [1] (setting [3]) was over 200 nM; in experiment [2], over 10000 nM.

On to `CCOc1ccc(C(=O)CN2c3nc(N4C[C@@H]5C[C@H]4CO5)cc(=O)n3CC[C@H]2C(F)(F)F)cn1` [Compound 35, (8S)-9-[2-(6-Ethoxypyrid-3-yl)-2-oxoethyl]-2-(1S,4S)-2-oxa-5-azabicyclo[2.2.1]hept-5-yl-8-trifluoromethyl-6,7,8,9-tetrahydropyrimido[1,2-a]pyrimidin-4-one], for which the IC50 in experiment [1] (setting [3]) was over 210 nM; in experiment [2], over 10000 nM.

Consider `Cc1c(C(=O)CN2c3nc(N4C[C@@H]5C[C@H]4CO5)cc(=O)n3CC[C@H]2C(F)(F)F)cnc(N)c1C` [Compound 36, (8S)-9-[2-(6-Amino-4,5-dimethylpyrid-3-yl)-2-oxoethyl]-2-(1S,4S)-2-oxa-5-azabicyclo[2.2.1]hept-5-yl-8-trifluoromethyl-6,7,8,9-tetrahydropyrimido[1,2-a]pyrimidin-4-one], for which the IC50 is 240 nM in experiment [1] (setting [3]) and over 10000 nM in experiment [2].

For the compound `O=C(CN1c2nc(N3C[C@@H]4C[C@H]3CO4)cc(=O)n2CC[C@H]1C(F)(F)F)c1ccc(OC(F)F)cc1` [Compound 37, (S)-9-[2-(4-Difluoromethoxyphenyl)-2-oxoethyl]-2-(1S,4S)-2-oxa-5-azabicyclo[2.2.1]hept-5-yl-8-trifluoromethyl-6,7,8,9-tetrahydropyrimido[1,2-a]pyrimidin-4-one], the IC50 is 230 nM in experiment [1] (setting [3]) and over 10000 nM in experiment [2].

Turning to `O=C(CN1c2nc(N3C[C@@H]4C[C@H]3CO4)cc(=O)n2CC[C@H]1C(F)(F)F)c1cnc2c(c1)OCCN2` [Compound 38, (8S)-9-[2-(3,4-dihydro-2H-pyrido[3,2-b][1,4]oxazin-7-yl)-2-oxoethyl]-2-(1S,4S)-2-oxa-5-azabicyclo[2.2.1]hept-5-yl-8-trifluoromethyl-6,7,8,9-tetrahydropyrimido[1,2-a]pyrimidin-4-one], the IC50 in experiment [1] (setting [3]) is 140 nM; in experiment [2], 5770 nM.

As for `Cc1ncoc1C(=O)CN1c2nc(N3C[C@@H]4C[C@H]3CO4)cc(=O)n2CC[C@H]1C(F)(F)F` [Compound 39, (8S)-9-[2-(4-Methyloxazol-5-yl)-2-oxoethyl]-2-(1S,4S)-2-oxa-5-azabicyclo[2.2.1]hept-5-yl-8-trifluoromethyl-6,7,8,9-tetrahydropyrimido[1,2-a]pyrimidin-4-one], the figures for the IC50 in experiment [1] (setting [3]) and in experiment [2] were 98 nM and over 10000 nM, respectively.

Take `O=C(CN1c2nc(N3C[C@@H]4C[C@H]3CO4)cc(=O)n2CC[C@H]1C(F)(F)F)c1ccc(F)c(F)c1` [Compound 40, (S)-9-[2-(3,4-Difluorophenyl)-2-oxoethyl]-2-(1S,4S)-2-oxa-5-azabicyclo[2.2.1]hept-5-yl-8-trifluoromethyl-6,7,8,9-tetrahydropyrimido[1,2-a]pyrimidin-4-one]: the IC50 was 80 nM in experiment [1] (setting [3]) and over 10000 nM in experiment [2].
